Article PMC4291223, “Inhibitors of CLK Protein Kinases Suppress Cell Growth and Induce Apoptosis by Modulating Pre-mRNA Splicing” (PLoS ONE, 2015)

Legend:
[1] = tested on: nuclear speckles in MDA-MB-468 cells; experiment: Immunofluorescence of nuclear speckles (anti-SC35); type: cell-based, human; conditions: MDA-MB-468, 6 h, anti-SC35 antibody
Procedure: MDA-MB-468 cells were fixed with 4% paraformaldehyde for 30 min at room temperature, washed with PBS, blocked with 5% BSA in PBS, incubated with an anti-SC35 antibody (Abcam, Cambridge, UK) for 1 h at room temperature, and incubated with a secondary antibody for 1 h. The cells were mounted and counterstained with DAPI (Vector Laboratories, Burlingame, CA) and detected using fluorescence microscopy.

[2] = tested on: S6K pre-mRNA splicing in SW620 cells; experiment: S6K pre-mRNA splicing alteration (quantitative RT-PCR), SW620; type: cell-based, human; conditions: ratio of S6K exons 6–8 to exons 6–7 is 0.1
Source text: (§1) To examine whether inhibition of a particular CLK and/or SRPK contributed to the alternative splicing of S6K pre-mRNA, we used an additional series of compounds with the same scaffold as Cpd-1, Cpd-2, and Cpd-3, but different selectivity. First, we examined the correlation between the enzymatic activity and the level of splicing alterations of S6K pre-mRNA for the individual compounds. We used the exon 7-skipped type of S6K variant to calibrate Rc0.1 values, i.e., the concentrations that induced 10% of the copy number of an alternative isoform compared with that of the canonical isoform. The inhibition of CLK1 and CLK2 activities was correlated with the splicing alteration activities (Rc0.1) (R^2 = 0.3353 and 0.4255, respectively). In contrast, there was no correlation between the activities of SRPKs and the Rc0.1 values (R^2 < 0.0468) (Fig. 3A). Next, we compared the levels of splicing alteration and growth inhibition of the compounds. […] Similar correlations between Rc0.1 and GI50 values were also obtained in seven different cancer cell lines after treatment with Cpd-2 or Cpd-3 (Table 2).
(§2) Total RNA was extracted using an RNeasy Miniprep Kit (Qiagen, Valencia, CA) in accordance with the manufacturer’s instructions. Reverse transcription was performed using a TaqMan Reverse Transcription Reagents Kit (Applied Biosystems, Carlsbad, CA). The PCR conditions were as follows: one cycle of 5 min at 95°C; 35 cycles of 30 s at 94°C, 30 s at 60°C, and 30 s at 72°C; and one cycle of 10 min at 72°C. The PCR products were separated in 2% agarose gels. Real-time PCR was performed using a TaqMan MGB probe (Applied Biosystems), and the amount of FAM fluorescence was measured as a function of the PCR cycle number (CT) using an ABI 7900 Real-time PCR System (Applied Biosystems). The expression level of each mRNA was normalized by that of GAPDH mRNA.

COLO320DM cells = experiment: Cell viability assay, COLO320DM; type: cell-based; conditions: Homo sapiens, COLO 320DM; COLO320DM colorectal cancer
[3] = tested on: S6K pre-mRNA splicing in MDA-MB-468 cells; experiment: S6K pre-mRNA splicing alteration (quantitative RT-PCR), MDA-MB-468; type: cell-based, human; conditions: for Rc0.1: MDA-MB-468, concentration at which ratio of copy number of S6K exons 6–8 to S6K exons 6–7 is 0.1; for concentration at which expression level of the alternatively spliced S6K mRNAs was highest: MDA-MB-468, 6 h, S6K exons 6–8 (exon 7 skipped)
Source text: as §1, §2

A549 cells = experiment: Cell viability assay, A549; type: cell-based; conditions: Homo sapiens; A549 non-small cell lung cancer
SW620 cells = experiment: Cell viability assay, SW620; type: cell-based; conditions: Homo sapiens, SW-620; SW620 colorectal cancer
CLK2 = target: T1, CLK2 (Homo sapiens, UniProt P49760); experiment: In vitro kinase assay (LANCE Ultra), CLK2; type: biochemical; conditions: for IC50: 20 µM ATP; for activity for CLK2 relative to Cpd-1: stronger than Cpd-1
T1 construct: purchased Life Technologies
T1 sequence (P49760 whole entry): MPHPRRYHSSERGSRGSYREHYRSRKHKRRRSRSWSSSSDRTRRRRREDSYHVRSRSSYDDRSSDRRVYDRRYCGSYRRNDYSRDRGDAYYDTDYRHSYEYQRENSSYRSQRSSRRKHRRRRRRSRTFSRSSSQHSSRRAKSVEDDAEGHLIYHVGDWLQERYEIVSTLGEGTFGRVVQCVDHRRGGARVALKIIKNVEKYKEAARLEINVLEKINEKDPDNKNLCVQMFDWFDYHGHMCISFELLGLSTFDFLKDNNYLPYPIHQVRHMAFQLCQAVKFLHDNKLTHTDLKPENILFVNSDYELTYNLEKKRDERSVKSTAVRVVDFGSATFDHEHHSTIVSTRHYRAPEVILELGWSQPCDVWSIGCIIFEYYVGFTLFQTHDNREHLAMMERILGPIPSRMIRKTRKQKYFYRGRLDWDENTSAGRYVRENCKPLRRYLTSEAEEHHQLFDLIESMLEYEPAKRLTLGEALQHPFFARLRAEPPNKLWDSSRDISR
Procedure: (§3) The ATP concentration for each assay was adjusted to the Km for each kinase. Kinase assays for SRPK1–3 and CLK1 were performed using the ADP-Glo™ assay (Promega, Madison, WI). The kinase buffer contained 25 mM HEPES (pH 7.5), 10 mM magnesium acetate, 1 mM DTT, 0.01% BSA, and 0.01% Tween-20. The reaction mixtures contained 50 ng/mL SRPK1, 100 ng/mL SRPK2 or SRPK3, or 300 ng/mL CLK1 and 3 μM substrate peptide [GRSRSRSRSRSRSRSR] (Thermo Scientific). After incubating the enzyme, peptide, and compounds for 10 min, kinase reactions were initiated by adding ATP to a final concentration of 5 µM, followed by incubation for 30 min (15 min for SRPK1). The kinase reactions were terminated by adding ADP-Glo™ reagent (Promega). ADP was detected using a kinase detection reagent (Promega). The kinase activity of CLK2 was measured using the LANCE® Ultra assay (Perkin-Elmer, Waltham, MA) with ADP-Glo assay buffer. The reaction mixtures contained 100 ng/mL CLK2 and 50 nM ULight™-myelin basic protein (MBP) peptide (Perkin-Elmer). After incubating the enzyme, peptide, and compounds for 5 min, kinase reactions were initiated by adding ATP to a final concentration of 20 μM, followed by incubation for 30 min. The enzyme reactions were terminated by adding 30 mM EDTA, and phosphorylated ULight-MBP peptides were detected using a europium-labeled anti-phospho-MBP antibody diluted with detection buffer (Perkin-Elmer). The plates were read using an EnVision 2102 multilabel reader (Perkin-Elmer). We defined the absorbance of the reaction without enzyme as 100% inhibitory activity and that of the complete reaction mixture as 0% inhibitory activity. The IC50 values were estimated using the “Sigmoidal dose-response (variable slope)” equation in GraphPad Prism 5 software (GraphPad Software, San Diego, CA), with the maximum and minimum of the curve constrained to 100 and 0, respectively.

SRPK2 = target: T2, SRPK2 (Homo sapiens, UniProt P78362); experiment: In vitro kinase assay (ADP-Glo), SRPK2; type: biochemical; conditions: 5 µM ATP
T2 construct: purchased Millipore
T2 sequence (P78362 whole entry): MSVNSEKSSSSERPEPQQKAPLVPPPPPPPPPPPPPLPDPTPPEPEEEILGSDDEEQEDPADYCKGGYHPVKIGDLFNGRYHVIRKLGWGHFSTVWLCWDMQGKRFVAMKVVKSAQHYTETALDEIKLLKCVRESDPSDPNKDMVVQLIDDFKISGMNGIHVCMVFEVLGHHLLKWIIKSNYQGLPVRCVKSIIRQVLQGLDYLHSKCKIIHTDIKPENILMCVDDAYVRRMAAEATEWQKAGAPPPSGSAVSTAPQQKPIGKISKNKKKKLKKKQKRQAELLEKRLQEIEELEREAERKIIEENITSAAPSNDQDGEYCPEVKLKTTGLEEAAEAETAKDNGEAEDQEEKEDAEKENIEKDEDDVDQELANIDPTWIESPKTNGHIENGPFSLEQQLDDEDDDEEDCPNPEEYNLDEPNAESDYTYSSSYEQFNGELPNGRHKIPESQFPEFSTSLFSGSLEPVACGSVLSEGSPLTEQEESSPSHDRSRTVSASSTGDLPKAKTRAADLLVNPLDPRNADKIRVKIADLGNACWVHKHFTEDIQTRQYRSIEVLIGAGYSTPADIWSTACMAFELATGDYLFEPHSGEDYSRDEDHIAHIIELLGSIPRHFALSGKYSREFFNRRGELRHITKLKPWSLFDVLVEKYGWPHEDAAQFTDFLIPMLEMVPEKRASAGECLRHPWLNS
Procedure: as §3

GI50 (COLO320DM cells)	GI50 (A549 cells)	GI50 (SW620 cells)	IC50 (CLK2)	IC50 (SRPK2)	activity for CLK2 relative to Cpd-1 (CLK2)	Structure (SMILES)	effect on nuclear speckles [1]	Rc0.1 [2]	Rc0.1 [3]	concentration at which expression level of the alternatively spliced S6K mRNAs was highest [3]
43000 nM	102000 nM	41800 nM	45 nM	75 nM		CC(C)(CCc1nnn[nH]1)c1ccc(C(=O)Nc2cn3cc(C(F)(F)F)ccc3n2)cc1 [Cpd-1, 4-(2-methyl-4-(1H-tetrazol-5-yl)butan-2-yl)-N-(6-(trifluoromethyl)imidazo[1,2-a]pyridin-2-yl)benzamide]	induced enlargement of nuclear speckles	>10 µM	8.6 µM	
600 nM	1900 nM	2000 nM	2.4 nM	310 nM	10 fold	CC(C)(C)c1ccc(C(=O)Nc2cn3cc(-c4cn[nH]c4)ccc3n2)cn1 [Cpd-2, 6-tert-butyl-N-(6-(1H-pyrazol-4-yl)imidazo[1,2-a]pyridin-2-yl)nicotinamide]	induced enlargement of nuclear speckles	1.2 µM	0.3 µM	1.1 to 3.3 µM
1500 nM	2600 nM	2900 nM	2.1 nM	260 nM	10 fold	CC(C)(CO)c1ccc(C(=O)Nc2cn3cc(-c4cn[nH]c4)ccc3n2)cc1 [Cpd-3, 4-(1-hydroxy-2-methylpropan-2-yl)-N-(6-(1H-pyrazol-4-yl)imidazo[1,2-a]pyridin-2-yl)benzamide]	induced enlargement of nuclear speckles	1.4 µM	0.5 µM	1.1 to 3.3 µM
